# Results: patent publication US8110566B2, “Therapeutic agents 713” (AstraZeneca AB, priority 2009, dated 2012)
# Columns and labels:
# [1] = target: T1, human histamine H3 receptors (Homo sapiens, UniProt Q9Y5N1); experiment: Histamine H3 SPA with [3H]-N-α-methylhistamine and/or GTPγS binding assay
# T1 construct: human histamine H3 receptors (full-length H3, the most prevalent brain isoform 445); host or cells: CHO-K1, stably expressing (membranes)
# [2] = target: T2, human Melanin Concentrating Hormone receptor 1 (MCHR1) (Homo sapiens, UniProt Q99705); experiment: MCHr1 IC50 (MCH binding assay / MCHR1 receptor activation assay)
# T2 construct: host or cells: CHO-K1 (membranes)
# T2 sequence (Q99705 whole entry): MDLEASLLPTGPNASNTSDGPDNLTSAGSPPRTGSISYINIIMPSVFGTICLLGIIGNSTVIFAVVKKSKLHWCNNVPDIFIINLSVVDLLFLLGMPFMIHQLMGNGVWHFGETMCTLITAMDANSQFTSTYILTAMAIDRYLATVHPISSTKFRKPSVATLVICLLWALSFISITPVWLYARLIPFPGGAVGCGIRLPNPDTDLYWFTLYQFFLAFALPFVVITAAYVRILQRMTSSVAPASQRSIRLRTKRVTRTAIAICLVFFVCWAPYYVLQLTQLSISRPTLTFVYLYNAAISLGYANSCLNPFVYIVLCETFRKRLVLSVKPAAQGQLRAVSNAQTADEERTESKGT
# T1 sequence (Q9Y5N1 whole entry, canonical isoform): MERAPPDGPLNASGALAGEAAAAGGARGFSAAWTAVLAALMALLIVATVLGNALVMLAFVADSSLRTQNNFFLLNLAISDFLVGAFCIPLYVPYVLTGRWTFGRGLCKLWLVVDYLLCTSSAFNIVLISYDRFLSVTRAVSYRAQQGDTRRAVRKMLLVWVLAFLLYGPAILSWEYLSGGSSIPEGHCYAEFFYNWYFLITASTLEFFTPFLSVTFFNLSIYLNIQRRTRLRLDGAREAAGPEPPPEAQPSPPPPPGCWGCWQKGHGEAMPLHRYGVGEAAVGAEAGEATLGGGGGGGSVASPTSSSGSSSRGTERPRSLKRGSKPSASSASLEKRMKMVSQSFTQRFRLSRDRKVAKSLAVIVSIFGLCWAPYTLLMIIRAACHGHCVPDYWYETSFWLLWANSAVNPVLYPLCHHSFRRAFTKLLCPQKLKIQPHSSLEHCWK
SMILES,IC50 [1],IC50 [2]
"O=C(c1nnc(-c2ccccc2)o1)N1CC(Oc2ccc(CN3CC4(COC4)C3)c(Cl)c2)C1 [Example 1, (3-(4-(2-Oxa-6-azaspiro[3.3]heptan-6-ylmethyl)-3-chlorophenoxy)azetidin-1-yl)(5-phenyl-1,3,4-oxadiazol-2-yl)methanone]",410 nM,17 nM
"O=C(c1nnc(-c2ccc(Cl)cc2)o1)N1CC(Oc2ccc(CN3CC4(COC4)C3)cc2)C1 [Example 2, (3-(4-(2-Oxa-6-azaspiro[3.3]heptan-6-ylmethyl)phenoxy)azetidin-1-yl)(5-(4-chlorophenyl)-1,3,4-oxadiazol-2-yl)methanone]",620 nM,10 nM
"O=C(c1nnc(-c2ccccc2)o1)N1CC(Oc2ccc(CN3CC4(COC4)C3)cc2)C1 [Example 3, (3-(4-(2-Oxa-6-azaspiro[3.3]heptan-6-ylmethyl)phenoxy)azetidin-1-yl)(5-phenyl-1,3,4-oxadiazol-2-yl)methanone]",800 nM,
"O=C(c1nnc(-c2ccccc2)o1)N1CC(Sc2ccc(CN3CC4(COC4)C3)cc2)C1 [Example 5, (3-(4-(2-Oxa-6-azaspiro[3.3]heptan-6-ylmethyl)phenylthio)azetidin-1-yl)(5-phenyl-1,3,4-oxadiazol-2-yl)methanone]",,17 nM
"O=C(c1nnc(-c2ccc(F)cc2)o1)N1CC(Oc2ccc(CN3CC4(COC4)C3)cc2)C1 [Example 6, (3-(4-(2-Oxa-6-azaspiro[3.3]heptan-6-ylmethyl)phenoxy)azetidin-1-yl)(5-(4-fluorophenyl)-1,3,4-oxadiazol-2-yl)methanone]",,24 nM
"O=C(c1nnc(-c2ccc(OC(F)F)cc2)o1)N1CC(Oc2ccc(CN3CC4(COC4)C3)cc2)C1 [Example 7, (3-(4-(2-Oxa-6-azaspiro[3.3]heptan-6-ylmethyl)phenoxy)azetidin-1-yl)(5-(4-(difluoromethoxy)phenyl)-1,3,4-oxadiazol-2-yl)methanone]",,12 nM
"O=C(c1nnc(-c2ccccc2)o1)N1CC(Oc2ccc(CN3CC4(COC4)C3)cc2Cl)C1 [Example 8, (3-(4-(2-Oxa-6-azaspiro[3.3]heptan-6-ylmethyl)-2-chlorophenoxy)azetidin-1-yl)(5-phenyl-1,3,4-oxadiazol-2-yl)methanone]",,24 nM
"COc1ccc(-c2nnc(C(=O)N3CC(Oc4ccc(CN5CC6(C5)OCC6(C)C)cc4)C3)o2)cc1 [Example 9, (3-(4-((3,3-Dimethyl-1-oxa-6-azaspiro[3.3]heptan-6-yl)methyl)phenoxy)azetidin-1-yl)(5-(4-methoxyphenyl)-1,3,4-oxadiazol-2-yl)methanone]",,27 nM
"CC1(C)COC12CN(Cc1ccc(OC3CN(C(=O)c4nnc(-c5ccccc5)o4)C3)c(Cl)c1)C2 [Example 10, (3-(2-Chloro-4-((3,3-dimethyl-1-oxa-6-azaspiro[3.3]heptan-6-yl)methyl)phenoxy)azetidin-1-yl)(5-phenyl-1,3,4-oxadiazol-2-yl)methanone]",,30 nM
